Values of other authors in patent US20230226068A1, “METHOD, SYSTEM, FORMULATION AND KIT FOR THE TREATMENT OF ONYCHOMYCOSIS” (priority 2021, published 2023).
Read-outs that look alike come from different tables or passages of the source.

Conditions: for side effects: po

Structure (SMILES) | side effects (in vivo) | safety profile (in vivo) | further results
CCC(C)n1ncn(-c2ccc(N3CCN(c4ccc(OCC5COC(Cn6cncn6)(c6ccc(Cl)cc6Cl)O5)cc4)CC3)cc2)c1=O (stereo not shown) [Itraconazole] | liver enzyme abnormalities, headaches, as well as gastrointestinal problems or rashes |  | 
C=C1CCN([C@H](C)[C@](O)(Cn2cncn2)c2ccc(F)cc2F)CC1 [Efinaconazole] |  | local skin irritations | 
CN(C/C=C/C#CC(C)(C)C)Cc1cccc2ccccc12 [Terbinafine] | liver enzyme abnormalities, headaches, as well as gastrointestinal problems or rashes |  | 
OC(Cn1cncn1)(Cn1cncn1)c1ccc(F)cc1F [Fluconazole] | liver enzyme abnormalities, headaches, as well as gastrointestinal problems or rashes |  | 
Cc1cc(C2CCCCC2)n(O)c(=O)c1 [Ciclopirox] |  | local skin irritations | 
OB1OCc2cc(F)ccc21 [Tavaborole] |  |  | safety profile (topical treatment): local skin irritations
CCC(C)(C)c1ccc(CC(C)CN2C[C@@H](C)O[C@@H](C)C2)cc1 (stereo partly shown) [Amorolfine] |  | local skin irritations | 
